Experimental data from PubChem BioAssay (NCI).
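Following 48 hours of exposure in 96-well plates, responses at five concentrations were used to interpolate endpoints linearly. The concentration for 50% growth inhibition is given as GI50. TGI: concentration producing complete growth inhibition.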

Assays:
Test in all cases: DTP human tumour cell line panel, 48 h
[1] = test system: T-47D breast
[2] = test system: A549 NSCLC
[3] = test system: UACC-62 melanoma
[4] = test system: HCT-116 colon
[5] = test system: SK-MEL-28 melanoma
[6] = test system: OVCAR-3 ovarian
[7] = test system: TK-10 renal
[8] = test system: SW-620 colon
[9] = test system: NCI/ADR-RES ovarian
[10] = test system: BT-549 breast
[11] = test system: HT29 colon
[12] = test system: PC-3 prostate
[13] = test system: IGROV1 ovarian
[14] = test system: HOP-92 NSCLC
[15] = test system: U251 CNS
[16] = test system: SF-268 CNS
[17] = test system: DU-145 prostate
[18] = test system: SN12C renal
[19] = test system: EKVX NSCLC
[20] = test system: UO-31 renal
[21] = test system: SK-MEL-5 melanoma
[22] = test system: MCF7 breast
[23] = test system: LOX IMVI melanoma
[24] = test system: K-562 leukemia
[25] = test system: CAKI-1 renal
[26] = test system: OVCAR-4 ovarian
[27] = test system: MDA-MB-435
[28] = test system: MALME-3M melanoma
[29] = test system: NCI-H522 lung
[30] = test system: HOP-62 NSCLC
[31] = test system: OVCAR-8 ovarian
[32] = test system: UACC-257 melanoma
[33] = test system: ACHN renal
[34] = test system: M14 melanoma
[35] = test system: KM12 colon
[36] = test system: HS 578T breast
[37] = test system: HCC-2998 colon
[38] = test system: 786-0 renal
[39] = test system: RXF 393 renal
[40] = test system: HCT-15 colon
[41] = test system: NCI-H23 lung
[42] = test system: NCI-H460 lung
[43] = test system: A498 renal
[44] = test system: MOLT-4 leukemia
[45] = test system: MDA-MB-231 breast
[46] = test system: OVCAR-5 ovarian
[47] = test system: COLO 205 colon
[48] = test system: SF-539 CNS
[49] = test system: SK-OV-3 ovarian
[50] = test system: SF-295 CNS
[51] = test system: RPMI-8226 leukemia
[52] = test system: NCI-H226 lung
[53] = test system: SK-MEL-2 melanoma
[54] = test system: SNB-19 CNS

**Q.** How did the GI50 [1] turn out when C=C1C(=O)O[C@H]2[C@H]1CC/C(COC(=O)NCc1ccc(Cn3c(=O)sn(CCI)c3=O)cc1)=C\CC[C@@]1(C)O[C@@H]21 was run?
**A.** 1.32 µM

**Q.** And the TGI [1]?
**A.** 3.06 µM

**Q.** And the GI50 [2]?
**A.** 16.6 µM

**Q.** What about the TGI [2] of the same molecule?
**A.** 32.4 µM

**Q.** What about the GI50 [3] of the same molecule?
**A.** 1.98 µM

**Q.** What about the TGI [3] of the same molecule?
**A.** 4.08 µM

**Q.** And the GI50 [4]?
**A.** 1.76 µM

**Q.** What about the TGI [4] of the same molecule?
**A.** 3.27 µM

**Q.** What about the GI50 [5] of the same molecule?
**A.** 2.06 µM

**Q.** And the TGI [5]?
**A.** 3.74 µM

**Q.** What about the GI50 [6] of the same molecule?
**A.** 1.64 µM

**Q.** And the TGI [6]?
**A.** 3.05 µM

**Q.** And the GI50 [7]?
**A.** 1.91 µM

**Q.** And the TGI [7]?
**A.** 3.68 µM

**Q.** What about the GI50 [8] of the same molecule?
**A.** 1.66 µM

**Q.** What about the TGI [8] of the same molecule?
**A.** 3.25 µM

**Q.** What about the GI50 [9] of the same molecule?
**A.** 20.3 µM

**Q.** What about the TGI [9] of the same molecule?
**A.** 47.2 µM

**Q.** What about the GI50 [10] of the same molecule?
**A.** 2.4 µM

**Q.** And the TGI [10]?
**A.** 6.08 µM

**Q.** And the GI50 [11]?
**A.** 2.1 µM

**Q.** And the TGI [11]?
**A.** 4.05 µM

**Q.** And the GI50 [12]?
**A.** 1.75 µM

**Q.** What about the TGI [12] of the same molecule?
**A.** 3.33 µM

**Q.** And the GI50 [13]?
**A.** 2.08 µM

**Q.** What about the TGI [13] of the same molecule?
**A.** 4.07 µM

**Q.** And the GI50 [14]?
**A.** 1.38 µM

**Q.** What about the TGI [14] of the same molecule?
**A.** 2.76 µM

**Q.** What about the GI50 [15] of the same molecule?
**A.** 4.67 µM

**Q.** And the TGI [15]?
**A.** 16 µM

**Q.** And the GI50 [16]?
**A.** 2.41 µM

**Q.** What about the TGI [16] of the same molecule?
**A.** 6.26 µM

**Q.** And the GI50 [17]?
**A.** 1.82 µM

**Q.** And the TGI [17]?
**A.** 3.29 µM

**Q.** And the GI50 [18]?
**A.** 2.16 µM

**Q.** What about the TGI [18] of the same molecule?
**A.** 5.38 µM

**Q.** What about the GI50 [19] of the same molecule?
**A.** 2.11 µM

**Q.** And the TGI [19]?
**A.** 5.58 µM

**Q.** What about the GI50 [20] of the same molecule?
**A.** 1.65 µM

**Q.** And the TGI [20]?
**A.** 3.11 µM

**Q.** What about the GI50 [21] of the same molecule?
**A.** 5.37 µM

**Q.** And the TGI [21]?
**A.** 17.9 µM

**Q.** What about the GI50 [22] of the same molecule?
**A.** 1.71 µM

**Q.** And the TGI [22]?
**A.** 3.64 µM

**Q.** And the GI50 [23]?
**A.** 1.69 µM

**Q.** What about the TGI [23] of the same molecule?
**A.** 3.11 µM

**Q.** And the GI50 [24]?
**A.** 0.655 µM

**Q.** What about the TGI [24] of the same molecule?
**A.** > 100 µM

**Q.** And the GI50 [25]?
**A.** 3.79 µM

**Q.** And the TGI [25]?
**A.** 14 µM

**Q.** And the GI50 [26]?
**A.** 2.02 µM

**Q.** What about the TGI [26] of the same molecule?
**A.** 4.19 µM

**Q.** What about the GI50 [27] of the same molecule?
**A.** 2.45 µM

**Q.** And the TGI [27]?
**A.** 6.62 µM

**Q.** And the GI50 [28]?
**A.** 1.68 µM

**Q.** What about the TGI [28] of the same molecule?
**A.** 3.4 µM

**Q.** What about the GI50 [29] of the same molecule?
**A.** 1.72 µM

**Q.** And the TGI [29]?
**A.** 3.36 µM

**Q.** What about the GI50 [30] of the same molecule?
**A.** 11.7 µM

**Q.** What about the TGI [30] of the same molecule?
**A.** 24.2 µM

**Q.** What about the GI50 [31] of the same molecule?
**A.** 4.55 µM

**Q.** And the TGI [31]?
**A.** 18.9 µM

**Q.** And the GI50 [32]?
**A.** 2.24 µM

**Q.** What about the TGI [32] of the same molecule?
**A.** 4.82 µM

**Q.** What about the GI50 [33] of the same molecule?
**A.** 1.89 µM

**Q.** And the TGI [33]?
**A.** 3.37 µM

**Q.** What about the GI50 [34] of the same molecule?
**A.** 1.82 µM

**Q.** And the TGI [34]?
**A.** 3.59 µM

**Q.** What about the GI50 [35] of the same molecule?
**A.** 8.15 µM

**Q.** What about the TGI [35] of the same molecule?
**A.** 23.1 µM

**Q.** And the GI50 [36]?
**A.** 7.29 µM

**Q.** And the TGI [36]?
**A.** 42.4 µM

**Q.** What about the GI50 [37] of the same molecule?
**A.** 10.4 µM

**Q.** And the TGI [37]?
**A.** 22.5 µM

**Q.** What about the GI50 [38] of the same molecule?
**A.** 1.82 µM

**Q.** What about the TGI [38] of the same molecule?
**A.** 3.36 µM

**Q.** And the GI50 [39]?
**A.** 1.61 µM

**Q.** What about the TGI [39] of the same molecule?
**A.** 3.13 µM

**Q.** What about the GI50 [40] of the same molecule?
**A.** 1.91 µM

**Q.** And the TGI [40]?
**A.** 4.1 µM

**Q.** And the GI50 [41]?
**A.** 3.46 µM

**Q.** And the TGI [41]?
**A.** 13.6 µM

**Q.** What about the GI50 [42] of the same molecule?
**A.** 6.42 µM

**Q.** What about the TGI [42] of the same molecule?
**A.** 22.7 µM

**Q.** And the GI50 [43]?
**A.** 4.44 µM

**Q.** And the TGI [43]?
**A.** 20 µM

**Q.** What about the GI50 [44] of the same molecule?
**A.** 1.35 µM

**Q.** And the TGI [44]?
**A.** 5.35 µM

**Q.** And the GI50 [45]?
**A.** 1.77 µM

**Q.** And the TGI [45]?
**A.** 3.31 µM

**Q.** What about the GI50 [46] of the same molecule?
**A.** 3.27 µM

**Q.** And the TGI [46]?
**A.** 10.1 µM

**Q.** What about the GI50 [47] of the same molecule?
**A.** 1.86 µM

**Q.** What about the TGI [47] of the same molecule?
**A.** 3.55 µM

**Q.** What about the GI50 [48] of the same molecule?
**A.** 1.72 µM

**Q.** And the TGI [48]?
**A.** 3.18 µM

**Q.** What about the GI50 [49] of the same molecule?
**A.** 15.2 µM

**Q.** What about the TGI [49] of the same molecule?
**A.** 28.5 µM

**Q.** What about the GI50 [50] of the same molecule?
**A.** 13.6 µM

**Q.** And the TGI [50]?
**A.** 27.1 µM

**Q.** And the GI50 [51]?
**A.** 1.98 µM

**Q.** And the TGI [51]?
**A.** 5.11 µM

**Q.** And the GI50 [52]?
**A.** 15.1 µM

**Q.** What about the TGI [52] of the same molecule?
**A.** 33.1 µM

**Q.** And the GI50 [53]?
**A.** 11.7 µM

**Q.** What about the TGI [53] of the same molecule?
**A.** 26.2 µM

**Q.** What about the GI50 [54] of the same molecule?
**A.** 6.88 µM

**Q.** What about the TGI [54] of the same molecule?
**A.** 19.9 µM
